In patent US9701669B2, “Preparation and use of 7a-amide substituted- 6,6-difluoro bicyclic himbacine derivatives as PAR-1 receptor antagonists” (Merck Sharp & Dohme Corp., priority 2013, dated 2017):
Like-named read-outs stand apart in the source and are kept apart here.

Columns and labels:
[1] = target: human Ether-á-go-go Related Gene (hERG) ion channel (Homo sapiens (Human), UniProt Q12809); assay: MK-499 Filter Binding Assay
Method: This assay is used to evaluate the potential of a compound to cause drug-induced long QT syndrome.
Drug cardiac arrhythmia is an important safety concern for pharmaceutical development and health regulatory authorities.
Then, 30 μL wash buffer (10 mM HEPES/NaOH, pH 7.4, 130 mM NaCl, 2 mM MgCl2, 1 mM CaCl2) equilibrated to RT were added to each well of the assay plate and subsequently transferred to the filter plate. The assay mixture was aspirated through the filter plate using a Biotek ELx405™ washer. The filter plate was washed twice with 100 μl cold wash buffer per wash and well and then dried in a drying oven for at least 75 min at 55° C. Afterwards, the bottom of each filter plate was heat sealed with a solid foil seal, then 10 μL of Microscint™ 0 (Perkin Elmer) were added to each well of the filter plate and finally, the top of each filter plate was sealed with a clear seal. The plates were stored for at least 20 min in a MicroBeta2 reader (Perkin Elmer) before they are counted (60 sec/well).

PAR-1 receptor = PAR-1 receptor (Homo sapiens (Human), UniProt P25116); assay: PAR-1 FLIPR Assay; format: cell-based; conditions: for IC50: HEK 293 cells, calcium signal after PAR-1 selective receptor-activating peptide at 80% activation
Sequence of PAR-1 receptor (P25116 22-425): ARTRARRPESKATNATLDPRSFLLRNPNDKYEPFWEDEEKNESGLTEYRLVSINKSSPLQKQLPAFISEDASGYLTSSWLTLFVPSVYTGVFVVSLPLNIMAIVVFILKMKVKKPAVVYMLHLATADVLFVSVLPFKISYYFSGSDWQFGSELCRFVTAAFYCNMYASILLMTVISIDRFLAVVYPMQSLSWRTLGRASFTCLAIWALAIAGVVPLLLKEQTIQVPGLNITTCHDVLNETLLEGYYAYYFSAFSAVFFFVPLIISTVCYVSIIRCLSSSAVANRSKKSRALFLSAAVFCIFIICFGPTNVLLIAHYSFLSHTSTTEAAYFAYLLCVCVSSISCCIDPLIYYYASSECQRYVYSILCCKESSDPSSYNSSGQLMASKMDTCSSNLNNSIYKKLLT
Method: This assay measures the potency of the inventive compounds as PAR-1 receptor antagonists.
Frozen HEK 293 Cells were plated in 384-well PDL coated plates at 12000 cells/well in 50 uL of DMEM media containing 10% FBS, pen/strep/L-Glutamine and non-essential amino acids, incubated overnight at 37° C./5% CO2. Media was then removed from the cells, incubated with 33 ul of Calcium-5 dye in assay buffer (Hank's buffer containing 20 mM HEPES, 0.04% Chaps and 2.5 mM Probenecid) for 60 minutes at 37° C. 2 uL of varying concentrations of compound in 40% DMSO in assay buffer (final DMSO concentration is 2.3%) were then added to the cells and incubated at 25° C. for 30 minutes. […] The range of peptide was from 1.5-3 μM. The final volume was 40 uL/well, with 2% DMSO. […] The data were analyzed by taking the peak signal over a portion of the range of the 60 scans and dividing this signal by the minimum signal for that same range.

[2] = membranes from HEK293 cell line expressing hERG, [35S]MK-0499 radioligand, read-out: MK499 IC50

Sequence of human Ether-á-go-go Related Gene (hERG) ion channel (Q12809 whole entry): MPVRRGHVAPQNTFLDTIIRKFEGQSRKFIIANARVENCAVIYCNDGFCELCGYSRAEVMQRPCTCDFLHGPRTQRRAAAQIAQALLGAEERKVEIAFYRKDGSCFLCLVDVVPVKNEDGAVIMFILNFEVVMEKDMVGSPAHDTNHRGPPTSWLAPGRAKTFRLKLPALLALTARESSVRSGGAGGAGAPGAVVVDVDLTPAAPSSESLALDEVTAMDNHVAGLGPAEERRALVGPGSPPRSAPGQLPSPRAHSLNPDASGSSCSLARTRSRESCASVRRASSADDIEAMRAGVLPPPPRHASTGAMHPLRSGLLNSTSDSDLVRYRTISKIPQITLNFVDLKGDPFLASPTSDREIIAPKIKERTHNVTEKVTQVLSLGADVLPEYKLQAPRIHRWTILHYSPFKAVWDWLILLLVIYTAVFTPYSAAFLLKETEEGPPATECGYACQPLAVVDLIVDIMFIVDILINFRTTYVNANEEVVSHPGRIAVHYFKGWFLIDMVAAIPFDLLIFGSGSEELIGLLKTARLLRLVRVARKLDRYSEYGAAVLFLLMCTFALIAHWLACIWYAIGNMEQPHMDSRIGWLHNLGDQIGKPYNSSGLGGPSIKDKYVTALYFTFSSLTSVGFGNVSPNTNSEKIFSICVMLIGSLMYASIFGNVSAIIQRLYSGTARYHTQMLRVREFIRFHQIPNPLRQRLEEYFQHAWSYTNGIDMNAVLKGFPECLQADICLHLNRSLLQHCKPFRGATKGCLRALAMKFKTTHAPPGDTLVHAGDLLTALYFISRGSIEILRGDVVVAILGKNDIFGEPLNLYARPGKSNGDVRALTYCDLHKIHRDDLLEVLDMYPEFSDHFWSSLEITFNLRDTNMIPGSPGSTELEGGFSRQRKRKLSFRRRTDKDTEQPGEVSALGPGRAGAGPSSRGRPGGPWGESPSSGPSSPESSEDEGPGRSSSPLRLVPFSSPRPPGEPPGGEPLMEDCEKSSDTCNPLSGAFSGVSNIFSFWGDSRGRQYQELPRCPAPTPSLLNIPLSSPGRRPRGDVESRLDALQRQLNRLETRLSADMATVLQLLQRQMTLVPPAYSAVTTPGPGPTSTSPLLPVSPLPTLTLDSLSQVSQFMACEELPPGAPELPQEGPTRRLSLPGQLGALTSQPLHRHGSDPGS

| Compound | IC50 ([1]; human, pH 7.4) | IC50 [1, 2] | IC50 (PAR-1 receptor) | PAR-1 FLIPR IC50 (PAR-1 receptor; unit printed as 'mn' (apparent misprint of nM), same assay as E1, unit of the source corrected) |
| --- | --- | --- | --- | --- |
| Cc1nc(/C=C/[C@@H]2[C@@H]3[C@@H](C)OC(=O)[C@]3(C(N)=O)CC(F)(F)[C@H]2C)ccc1-c1ccccc1C#N [Example 4, (1R,3aR,6S,7R, 7aS)-7-((E)-2-(5-(2-cyanophenyl)-6-methylpyridin-2-yl)vinyl)-5,5-difluoro-1,6-dimethyl-3-oxooctahydro-isobenzofuran-3a-carboxamide] | 60 µM |  |  |  |
| Cc1c(F)cccc1-c1ccc(/C=C/[C@@H]2[C@@H]3[C@@H](C)OC(=O)[C@]3(C(N)=O)CC(F)(F)[C@H]2C)nc1 [Example 3, (1R,3aR, 6S,7R,7aS)-5,5-difluoro-7-((E)-2-(5-(3-fluoro-2-methylphenyl)pyridin-2-yl)vinyl)-1,6-dimethyl-3-oxooctahydro-isobenzofuran-3a-carboxamide] |  | 12 µM | 0.00137 µM |  |
| C[C@H]1OC(=O)[C@]2(C(N)=O)CC(F)(F)[C@@H](C)[C@H](/C=C/c3ccc(-c4cccnc4C#N)cn3)[C@H]12 [Example 11] |  | 60 µM | 0.00968 µM |  |
| C[C@H]1OC(=O)[C@]2(CC(N)=O)CC(F)(F)[C@@H](C)[C@H](/C=C/c3ccc(-c4ccccc4C#N)cn3)[C@H]12 [Example 5, 2-((1R,3aR,6S,7R,7aS)-7-((E)-2-(5-(2-cyanophenyl)pyridin-2-yl)vinyl)-5,5-difluoro-1,6-dimethyl-3-oxooctahydroisobenzofuran-3a-yl)acetamide] |  |  | 0.00314 µM |  |
| C[C@H]1OC(=O)[C@]2(CC(N)=O)CC(F)(F)[C@@H](C)[C@H](/C=C/c3ccc(-c4cccnc4C#N)cn3)[C@H]12 [Example 17, 2-((1R,3aR,6S, 7R,7aS)-7-((E)-2-(2′-cyano-[3,3′-bipyridin]-6-yl)vinyl)-5,5-difluoro-1,6-dimethyl-3-oxooctahydro-isobenzofuran-3a-yl)acetamide] |  |  | 0.0212 µM |  |
| C[C@H]1OC(=O)[C@]2(C(O)C(N)=O)CC(F)(F)[C@@H](C)[C@H](/C=C/c3ccc(-c4ccccc4C#N)cn3)[C@H]12 (mixture of isomers) [Example 20, (S and R)-2-((1R,3aR,6S, 7R,7aS)-7-((E)-2-(5-(2-cyanophenyl)pyridin-2-yl)vinyl)-5,5-difluoro-1,6-dimethyl-3-oxooctahydro-isobenzofuran-3a-yl)-2-hydroxyacetamide] |  |  | 0.00441 µM |  |
| Cc1cccc(-c2ccc(/C=C/[C@@H]3[C@@H]4[C@@H](C)OC(=O)[C@]4(C(N)=O)CC(F)(F)[C@H]3C)nc2)c1F [Example 2, (1R,3aR,6S,7R, 7aS)-5,5-difluoro-7-((E)-2-(5-(2-fluoro-3-methylphenyl)pyridin-2-yl)vinyl)-1,6-dimethyl-3-oxooctahydro-isobenzofuran-3a-carboxamide] |  | 13 µM | 0.0038 µM |  |
| C[C@H]1OC(=O)[C@]2(C(C)(C)C(N)=O)CC(F)(F)[C@@H](C)[C@H](/C=C/c3ccc(-c4ccccc4C#N)cn3)[C@H]12 [Example 21, 2-((1R,3aR,6S,7R,7aS)-7-((E)-2-(5-(2-cyanophenyl)pyridin-2-yl)vinyl)-5,5-difluoro-1,6-dimethyl-3-oxooctahydroisobenzofuran-3a-yl)-2-methylpropanamide] |  |  | 0.0171 µM |  |
| C[C@H]1OC(=O)[C@]2(N3CC(C(N)=O)C3)CC(F)(F)[C@@H](C)[C@H](/C=C/c3ccc(-c4ccccc4C#N)cn3)[C@H]12 [Example 12, 1-((1R,3aS,6S,7R,7aS)-7-((E)-2-(5-(2-cyanophenyl)pyridin-2-yl)vinyl)-5,5-difluoro-1,6-dimethyl-3-oxo-octahydroisobenzofuran-3a-yl)azetidine-3-carboxamide] |  | 16.3 µM | 0.0057 µM |  |
| C[C@H]1OC(=O)[C@]2(N3CC(C(N)=O)C3)CC(F)(F)[C@@H](C)[C@H](/C=C/c3ccc(-c4cccc(F)c4)cn3)[C@H]12 [Example 13, 1-((1R,3aS,6S, 7R,7aS)-5,5-difluoro-7-((E)-2-(5-(3-fluorophenyl)pyridin-2-yl)vinyl)-1,6-dimethyl-3-oxo-octahydro-isobenzofuran-3a-yl)azetidine-3-carboxamide] |  |  | 0.0139 µM |  |
| C[C@H]1OC(=O)[C@]2(CCC(N)=O)CC(F)(F)[C@@H](C)[C@H](/C=C/c3ccc(-c4cccnc4C#N)cn3)[C@H]12 [Example 15, 3-((1R,3aR,6S, 7R,7aS)-7-((E)-2-(2′-cyano-[3,3′-bipyridin]-6-yl)vinyl)-5,5-difluoro-1,6-dimethyl-3-oxooctahydro-isobenzofuran-3a-yl)propanamide] | 60 µM |  | 0.00634 µM |  |
| C[C@H]1OC(=O)[C@]2(C(N)=O)CC(F)(F)[C@@H](C)[C@H](/C=C/c3ccc(-c4cccc5c4OC(F)(F)O5)cn3)[C@H]12 [Example 10, (1R,3aR,6S,7R,7aS)-7-((E)-2-(5-(2,2-difluorobenzo[d][1,3]dioxol-4-yl)pyridin-2-yl)vinyl)-5,5-difluoro-1,6-dimethyl-3-oxooctahydroisobenzofuran-3a-carboxamide] |  | 15.4 µM | 0.00449 µM |  |
| C[C@H]1OC(=O)[C@]2(C(N)=O)CC(F)(F)[C@@H](C)[C@H](/C=C/c3ccc(-c4ccccc4C#N)cn3)[C@H]12 [Example 1, (1R,3aR,6S,7R,7aS)-7-((E)-2-(5-(2-cyanophenyl)pyridin-2-yl)vinyl)-5,5-difluoro-1,6-dimethyl-3-oxooctahydroisobenzofuran-3a-carboxamide] |  |  | 0.00293 µM |  |
| C[C@H]1OC(=O)[C@]2(CCC(N)=O)CC(F)(F)[C@@H](C)[C@H](/C=C/c3ccc(-c4ccccc4C#N)cn3)[C@H]12 [Example 14, 3-((1R,3aR,6S,7R,7aS)-7-((E)-2-(5-(2-cyanophenyl)pyridin-2-yl)vinyl)-5,5-difluoro-1,6-dimethyl-3-oxooctahydroisobenzofuran-3a-yl)propanamide] |  |  | 0.0044 µM |  |
| COC(C(N)=O)[C@@]12CC(F)(F)[C@@H](C)[C@H](/C=C/c3ccc(-c4ccccc4C#N)cn3)[C@@H]1[C@@H](C)OC2=O (mixture of isomers) [Example 19, (S and R)-2-((1R,3aR,6S,7R,7aS)-7-((E)-2-(5-(2-cyanophenyl)pyridin-2-yl)vinyl)-5,5-difluoro-1,6-dimethyl-3-oxooctahydroisobenzofuran-3a-yl)-2-methoxyacetamide] |  | 47.7 µM |  | 3.02 nM |
| C[C@H]1OC(=O)[C@]2(NCC(N)=O)CC(F)(F)[C@@H](C)[C@H](/C=C/c3ccc(-c4ccccc4C#N)cn3)[C@H]12 [Example 18, 2-(((1R,3aS,6S,7R,7aS)-7-((E)-2-(5-(2-cyanophenyl)pyridin-2-yl)vinyl)-5,5-difluoro-1,6-dimethyl-3-oxooctahydroisobenzofuran-3a-yl)amino)acetamide] |  |  | 0.0043 µM |  |
| COc1ncccc1-c1ccc(/C=C/[C@@H]2[C@@H]3[C@@H](C)OC(=O)[C@]3(CC(N)=O)CC(F)(F)[C@H]2C)nc1 [Example 16, 2-((1R,3aR,6S, 7R,7aS)-5,5-difluoro-7-((E)-2-(2′-methoxy-[3,3′-bipyridin]-6-yl)vinyl)-1,6-dimethyl-3-oxooctahydro-isobenzofuran-3a-yl)acetamide] |  | 25.9 µM | 0.104 µM |  |
